# Test results: the supplement of paper PMC10307832
# What was measured:
# Test in all cases: relative viability (nuclei count vs DMSO), 5 days (fraction); higher = more cells survive
# Entinostat + Alpelisib = compound: Nc1ccccc1NC(=O)c1ccc(CNC(=O)OCc2cccnc2)cc1 [Entinostat] + Cc1nc(NC(=O)N2CCC[C@H]2C(N)=O)sc1-c1ccnc(C(C)(C)C(F)(F)F)c1 [Alpelisib] (partner 2 µM)
# Procedure, shortened: (§1)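 Lung cancer cell lines were pin-tool dosed in 1536-well plates on the day after seeding, with either a lone drug or a fixed anchor-drug dose plus five library-drug doses (not always all listed) in √10 steps. Nuclei were counted on 4× images after 5 days. Relative viability is the ratio of treated-well to vehicle-well nuclei counts, with each value a median of duplicate plates.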
# Entinostat + Crizotinib = compound: Nc1ccccc1NC(=O)c1ccc(CNC(=O)OCc2cccnc2)cc1 [Entinostat] + C[C@@H](Oc1cc(-c2cnn(C3CCNCC3)c2)cnc1N)c1c(Cl)ccc(F)c1Cl [Crizotinib] (partner 1 µM)
# Procedure, shortened: as §1
# Entinostat + Foretinib = compound: Nc1ccccc1NC(=O)c1ccc(CNC(=O)OCc2cccnc2)cc1 [Entinostat] + COc1cc2c(Oc3ccc(NC(=O)C4(C(=O)Nc5ccc(F)cc5)CC4)cc3F)ccnc2cc1OCCCN1CCOCC1 [Foretinib] (partner 0.25 µM)
# Procedure, shortened: as §1
# Entinostat + OSI-027 = compound: Nc1ccccc1NC(=O)c1ccc(CNC(=O)OCc2cccnc2)cc1 [Entinostat] + COc1cccc2cc(-c3nc([C@H]4CC[C@H](C(=O)O)CC4)n4ncnc(N)c34)[nH]c12 [OSI-027] (partner 0.5 µM)
# Procedure, shortened: as §1
Cell Line,relative viability (Entinostat + Alpelisib; first compound 0.02 µM),relative viability (Entinostat + Alpelisib; first compound 0.06325 µM),relative viability (Entinostat + Alpelisib; first compound 0.2 µM),relative viability (Entinostat + Alpelisib; first compound 0.6325 µM),relative viability (Entinostat + Alpelisib; first compound 2 µM),relative viability (Entinostat + Crizotinib; first compound 0.02 µM),relative viability (Entinostat + Crizotinib; first compound 0.06325 µM),relative viability (Entinostat + Crizotinib; first compound 0.2 µM),relative viability (Entinostat + Crizotinib; first compound 0.6325 µM),relative viability (Entinostat + Crizotinib; first compound 2 µM),relative viability (Entinostat + Foretinib; first compound 0.02 µM),relative viability (Entinostat + Foretinib; first compound 0.06325 µM),relative viability (Entinostat + Foretinib; first compound 0.2 µM),relative viability (Entinostat + Foretinib; first compound 0.6325 µM),relative viability (Entinostat + Foretinib; first compound 2 µM),relative viability (Entinostat + OSI-027; first compound 0.02 µM),relative viability (Entinostat + OSI-027; first compound 0.06325 µM),relative viability (Entinostat + OSI-027; first compound 0.2 µM),relative viability (Entinostat + OSI-027; first compound 0.6325 µM),relative viability (Entinostat + OSI-027; first compound 2 µM)
NCI-H2009,1.21,1.13,1.15,0.884,0.721,0.984,1.06,0.965,0.877,0.556,1.15,1.19,1.19,0.942,0.894,0.59,0.691,0.628,0.636,0.451
NCI-H2023,0.475,0.5,0.319,0.165,0.128,0.526,0.596,0.324,0.17,0.109,0.765,0.749,0.408,0.162,0.11,0.287,0.29,0.264,0.12,0.0886
NCI-H2085,0.947,0.946,0.766,0.634,0.502,0.991,0.933,0.769,0.57,0.414,1.01,0.969,0.984,0.54,0.401,0.737,0.625,0.676,0.334,0.293
NCI-H2087,0.983,0.954,0.806,0.64,0.54,0.716,0.672,0.818,0.559,0.467,1.18,1.04,0.89,0.352,0.256,0.666,0.509,0.376,0.27,0.213
NCI-H2126,0.738,0.708,0.614,0.46,0.317,1.01,1.06,0.954,0.89,0.58,1.12,1.06,1.05,0.572,0.415,0.725,0.699,0.712,0.402,0.308
NCI-H2170,0.77,0.747,0.771,0.521,0.345,1.17,1.06,1.02,0.704,0.491,0.978,1.05,0.964,0.597,0.613,0.745,0.65,0.742,0.607,0.373
NCI-H2228,0.785,0.608,0.473,0.325,0.273,0.479,0.429,0.337,0.378,0.221,0.994,0.787,0.914,0.526,0.288,0.695,0.595,0.416,0.266,0.208
NCI-H2347,1.09,0.99,0.865,0.391,0.343,0.686,0.581,0.653,0.5,0.408,0.837,0.812,0.454,0.254,0.37,0.292,0.284,0.175,0.217,0.153
